We go through five compounds from paper PMC9369419 (International Journal of Molecular Sciences, 2022).

Molecules are shown by their SMILES. Read-outs that look alike come from different tables or passages of the source. Where only a bound is given, the exact number is not on record here.

In series [1] the target is T1, GluK2 (Rattus norvegicus, UniProt P42260).
T1 construct: made in house; host or cells: Sf9 insect cells (membranes)
The note with it: recombinant rat iGluR, mean ± SEM; cited from earlier work.

For series [2], the target named is T2, GluK5 (Rattus norvegicus, UniProt Q63273).
T2 construct: made in house; host or cells: Sf9 insect cells (membranes)
T2 sequence (Q63273 15-979): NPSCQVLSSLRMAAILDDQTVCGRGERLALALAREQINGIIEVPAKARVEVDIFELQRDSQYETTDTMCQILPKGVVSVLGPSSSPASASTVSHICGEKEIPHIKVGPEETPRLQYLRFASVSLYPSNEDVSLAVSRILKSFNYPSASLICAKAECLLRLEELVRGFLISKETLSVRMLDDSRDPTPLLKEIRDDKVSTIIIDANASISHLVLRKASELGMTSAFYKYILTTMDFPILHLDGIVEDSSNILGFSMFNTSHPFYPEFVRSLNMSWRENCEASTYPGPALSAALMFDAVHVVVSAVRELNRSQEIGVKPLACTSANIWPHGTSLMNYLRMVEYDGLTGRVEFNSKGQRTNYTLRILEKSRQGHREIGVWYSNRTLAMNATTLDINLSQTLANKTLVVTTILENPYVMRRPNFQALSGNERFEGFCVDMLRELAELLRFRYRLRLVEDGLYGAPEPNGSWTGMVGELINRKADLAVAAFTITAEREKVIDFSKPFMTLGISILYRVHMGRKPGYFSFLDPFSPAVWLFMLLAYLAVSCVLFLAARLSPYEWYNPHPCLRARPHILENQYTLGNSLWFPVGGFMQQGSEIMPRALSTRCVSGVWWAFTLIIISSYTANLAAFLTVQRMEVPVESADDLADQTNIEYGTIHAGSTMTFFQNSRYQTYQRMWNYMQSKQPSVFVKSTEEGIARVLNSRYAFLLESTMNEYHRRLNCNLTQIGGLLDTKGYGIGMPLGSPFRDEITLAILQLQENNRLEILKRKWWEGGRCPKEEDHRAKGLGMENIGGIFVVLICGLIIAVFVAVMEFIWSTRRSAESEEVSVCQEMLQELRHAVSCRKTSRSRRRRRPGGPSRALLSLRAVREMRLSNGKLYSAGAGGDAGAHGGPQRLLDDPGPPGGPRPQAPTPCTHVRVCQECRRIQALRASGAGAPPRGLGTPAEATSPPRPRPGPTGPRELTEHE
To be noted: recombinant rat iGluR, mean ± SEM; cited from earlier work.

The target in series [3] is T3, GluK3 (Rattus norvegicus, UniProt P42264).
T3 construct: made in house; host or cells: Sf9 insect cells (membranes)
T3 sequence (P42264 32-919): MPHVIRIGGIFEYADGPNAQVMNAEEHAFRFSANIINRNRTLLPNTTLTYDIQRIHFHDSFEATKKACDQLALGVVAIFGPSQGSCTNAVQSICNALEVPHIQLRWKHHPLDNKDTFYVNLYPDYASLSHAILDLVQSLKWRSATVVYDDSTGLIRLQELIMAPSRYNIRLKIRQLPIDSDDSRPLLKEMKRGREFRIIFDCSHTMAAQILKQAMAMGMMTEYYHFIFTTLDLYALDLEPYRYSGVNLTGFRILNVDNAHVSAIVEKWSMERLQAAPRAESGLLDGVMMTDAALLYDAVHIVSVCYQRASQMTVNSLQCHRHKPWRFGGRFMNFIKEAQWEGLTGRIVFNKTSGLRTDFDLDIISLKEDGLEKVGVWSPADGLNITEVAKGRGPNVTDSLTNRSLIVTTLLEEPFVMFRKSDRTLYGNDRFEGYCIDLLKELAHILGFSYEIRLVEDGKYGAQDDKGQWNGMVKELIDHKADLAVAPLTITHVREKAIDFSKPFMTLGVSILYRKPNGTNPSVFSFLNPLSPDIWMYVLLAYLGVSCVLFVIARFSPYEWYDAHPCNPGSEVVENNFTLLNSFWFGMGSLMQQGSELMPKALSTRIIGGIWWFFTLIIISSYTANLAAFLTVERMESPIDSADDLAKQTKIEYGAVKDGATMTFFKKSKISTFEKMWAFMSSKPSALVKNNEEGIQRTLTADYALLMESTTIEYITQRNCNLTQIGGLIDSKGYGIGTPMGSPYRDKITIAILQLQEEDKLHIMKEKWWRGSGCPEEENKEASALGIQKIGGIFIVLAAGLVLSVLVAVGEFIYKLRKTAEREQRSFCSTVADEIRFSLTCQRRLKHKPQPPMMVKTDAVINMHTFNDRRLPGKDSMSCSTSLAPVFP
The note with it: cited from earlier work.

Series [4] deals with T4, GluK1 (Rattus norvegicus, UniProt P22756).
T4 construct: made in house; host or cells: Sf9 insect cells (membranes)
T4 sequence (P22756 31-949): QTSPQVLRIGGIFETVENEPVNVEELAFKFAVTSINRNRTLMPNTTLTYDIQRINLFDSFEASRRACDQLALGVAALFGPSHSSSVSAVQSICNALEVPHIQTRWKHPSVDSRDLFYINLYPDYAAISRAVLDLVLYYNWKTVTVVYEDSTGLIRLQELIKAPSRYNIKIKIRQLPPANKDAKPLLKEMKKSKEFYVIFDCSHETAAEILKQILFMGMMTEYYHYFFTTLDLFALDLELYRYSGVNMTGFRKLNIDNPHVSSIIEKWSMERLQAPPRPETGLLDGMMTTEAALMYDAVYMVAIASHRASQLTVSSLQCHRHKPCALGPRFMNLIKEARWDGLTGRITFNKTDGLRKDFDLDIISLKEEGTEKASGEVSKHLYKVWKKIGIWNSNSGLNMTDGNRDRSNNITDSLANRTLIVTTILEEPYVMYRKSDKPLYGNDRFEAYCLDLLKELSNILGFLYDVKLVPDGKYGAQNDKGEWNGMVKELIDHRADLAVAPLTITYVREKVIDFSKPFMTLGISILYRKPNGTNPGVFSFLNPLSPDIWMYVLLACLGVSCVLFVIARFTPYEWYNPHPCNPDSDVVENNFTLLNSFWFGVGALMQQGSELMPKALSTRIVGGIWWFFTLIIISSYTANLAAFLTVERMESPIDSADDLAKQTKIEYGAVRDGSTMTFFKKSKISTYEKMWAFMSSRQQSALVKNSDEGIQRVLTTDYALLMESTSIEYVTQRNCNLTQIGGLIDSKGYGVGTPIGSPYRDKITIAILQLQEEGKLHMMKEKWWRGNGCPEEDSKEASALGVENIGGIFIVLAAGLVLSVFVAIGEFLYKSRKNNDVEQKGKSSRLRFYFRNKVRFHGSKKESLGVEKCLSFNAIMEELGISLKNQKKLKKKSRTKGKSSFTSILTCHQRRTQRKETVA
The note with it: recombinant rat iGluR, mean ± SEM; cited from earlier work.

Series [5] concerns the target T4, GluK1. The series can be described thus: Radioligand binding at recombinant homomeric GluK1 in Sf9 membranes. To be noted: recombinant rat homomeric receptor, [3H]-(S)-NF608, mean ± SEM. As for the experimental part:
(§1) Ligand binding affinities at recombinant rat homomeric GluA2, GluK1−3, and GluK5 were determined as previously detailed. […] The filters were dried at 70 °C for 1 h, and 50 μL/well Microscint 20 (PerkinElmer, Waltham, MA, USA) was added. Radioactivity was detected with a TopCounter (PerkinElmer, Waltham, MA, USA). GluA2 and GluK5 assays were filtered on GF/C type filters using Millipore 12-well filtration manifolds (Merck Life Science, Søborg, Denmark) and washed twice with ice-cold assay buffer. Filters were placed in pony vials (PerkinElmer, Waltham, MA, USA), 3 mL of Ultima Gold scintillation fluid (PerkinElmer, Waltham, MA, USA) was added, and DPM (disintegrations per minute) were determined using a TriCarb 2900 scintillation counter (PerkinElmer, Waltham, MA, USA).
(§2) All competition curves (n ≥ 3 per ligand) were determined in triplicate. Data were analyzed using GraphPad Prism 6 (GraphPad Software, San Diego, CA, USA) to determine ligand affinity (Ki) and Hill coefficient (nH) using the one-site Ki and four-parameter logistics equations, respectively.

The target of series [6] is T3, GluK3. The series can be described thus: Radioligand binding at recombinant homomeric GluK3 in Sf9 membranes. The note with it: recombinant rat homomeric receptor, [3H]-kainic acid, mean ± SEM. As for the experimental part: as §1, §2
In series [7] the target is T5, GluA2 (Rattus norvegicus, UniProt P19491).
T5 construct: made in house; host or cells: Sf9 insect cells (membranes)
T5 sequence (P19491 22-883): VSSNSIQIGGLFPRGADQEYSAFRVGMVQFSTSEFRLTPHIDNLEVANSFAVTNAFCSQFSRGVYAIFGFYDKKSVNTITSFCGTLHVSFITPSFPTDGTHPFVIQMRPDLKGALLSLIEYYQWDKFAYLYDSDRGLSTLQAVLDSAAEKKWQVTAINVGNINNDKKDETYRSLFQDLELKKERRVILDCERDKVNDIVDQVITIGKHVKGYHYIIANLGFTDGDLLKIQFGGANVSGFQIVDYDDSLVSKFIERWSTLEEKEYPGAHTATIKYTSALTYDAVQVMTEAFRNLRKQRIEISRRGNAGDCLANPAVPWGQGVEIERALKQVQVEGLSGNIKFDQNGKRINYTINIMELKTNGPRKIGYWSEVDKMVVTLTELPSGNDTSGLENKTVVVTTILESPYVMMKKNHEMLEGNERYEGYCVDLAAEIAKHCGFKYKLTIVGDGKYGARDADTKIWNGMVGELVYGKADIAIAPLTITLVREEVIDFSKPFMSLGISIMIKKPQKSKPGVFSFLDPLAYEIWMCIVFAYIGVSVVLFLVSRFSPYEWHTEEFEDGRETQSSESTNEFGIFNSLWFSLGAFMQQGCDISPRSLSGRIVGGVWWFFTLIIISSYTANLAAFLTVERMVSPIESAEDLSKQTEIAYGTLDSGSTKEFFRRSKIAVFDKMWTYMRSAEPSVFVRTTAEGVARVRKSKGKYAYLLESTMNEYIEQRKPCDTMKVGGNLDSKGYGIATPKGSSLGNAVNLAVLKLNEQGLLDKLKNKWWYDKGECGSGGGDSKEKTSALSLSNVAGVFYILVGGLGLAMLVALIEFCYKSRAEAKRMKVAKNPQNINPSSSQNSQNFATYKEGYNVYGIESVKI
The series is described as follows: Radioligand binding at recombinant homomeric GluA2 in Sf9 membranes. To be noted: recombinant rat homomeric receptor, [3H]-(RS)-AMPA, mean ± SEM. As for the experimental part: as §1, §2

The target in series [8] is T6, GluK3a (Rattus norvegicus, UniProt P42264).
T6 construct: expressed in transfected cells
T6 sequence (P42264 32-919): as the sequence (P42264 32-919) above
The series is described as follows: Intracellular Ca2+ imaging assay, HEK293 cells expressing GluK3a. In kind it is cell-based. To be noted: 100 µM KA + 300 µM BPAM344, Ca2+ fluorescence, read-out: IC50, antagonism of agonist-evoked responses at GluK3. From the text: For the determination of antagonistic activity of compounds at GluK1, GluK3 and GluA2 receptors, stable HEK293 cell lines expressing rat GluK1b(Q), GluK3a, and GluA2(Q)i were created. A polyclonal stable cell line expressing GluK3a was created as described previously. For the creation of polyclonal stable cell lines expressing GluK1and GluA2 receptors, cDNA encoding blasticidin-S deaminase (blas) enzymes were inserted into the pIRES plasmid vector (Clontech, Mountain View, CA, USA) to create the plasmid vector pRES(blas). Subsequently, cDNA for rat GluK1(Q)1b and the flip isoform of rat GluA2(Q)i were inserted into pRES(blas) to create the expression constructs GluK1b(Q)pIRES(blas) and GluA2i(Q)pIRES(blas), respectively. These were used to transfect GripTite^TM HEK293 cells followed by selecting with 20 µg/mL blasticidin (Invivogen, Toulouse, France) and 0.50 mg/mL geneticin in the presence of 20 µM of the AMPA receptor antagonist CNQX (Tocris, Bristol, UK) until stably transfected GluK1b(Q) and GluA2(Q)i cell lines were obtained. For functional assays, cells were plated into clear-bottomed, black 96-well fluorescence culture plates (Corning, Vordingborg, Denmark), and when >70% confluent, the cells were loaded with 2 μM Fluo 4-AM calcium sensitive dye (Abcam, Cambridge, UK) and used for the imaging of agonist-evoked changes in intracellular Ca^2+ using a FlexStation I plate reader (Molecular Devices, San Jose, CA, USA). […] Changes in dye fluorescence in response to the addition of an agonist solution were then measured at 538 nm using excitation at 485 nm and emission cut-off at 515 nm. Baseline fluorescence was measured for 16 s before the addition of 50 µL agonist solution to each well of the assay plate, and fluorescence was measured for 120 to 160 s after addition of the agonists. Peak change in fluorescence was calculated as the difference between the maximal observed increase in fluorescence and pre-agonist baseline fluorescence. The agonist solutions contained 100 µM KA together with 300 µM of the KAR positive allosteric modulator BPAM344 (Sigma-Aldrich Chemical, St. Louis, MO, USA) for GluK1 and GluK3 experiments or 100 µM glutamate together with 100 µM of the AMPAR positive allosteric modulator cyclothiazide for GluA2 experiments (HelloBio, Bristol, UK). Responses were determined in at least triplicate at each compound concentration.

For series [9], the target named is T2, GluK5. The series can be described thus: Radioligand binding at recombinant homomeric GluK5 in Sf9 membranes. The note with it: recombinant rat homomeric receptor, [3H]-kainic acid, mean ± SEM. The method, then: as §1, §2
Series [10] has as its target T1, GluK2. The series is described as follows: Radioligand binding at recombinant homomeric GluK2 in Sf9 membranes. To be noted: recombinant rat homomeric receptor, [3H]-kainic acid, mean ± SEM. As for the experimental part:
as §1, §2

The target of series [11] is T5, GluA2. The note with it: recombinant rat iGluR, mean ± SEM; cited from earlier work.

T1 sequence (P42260 32-908): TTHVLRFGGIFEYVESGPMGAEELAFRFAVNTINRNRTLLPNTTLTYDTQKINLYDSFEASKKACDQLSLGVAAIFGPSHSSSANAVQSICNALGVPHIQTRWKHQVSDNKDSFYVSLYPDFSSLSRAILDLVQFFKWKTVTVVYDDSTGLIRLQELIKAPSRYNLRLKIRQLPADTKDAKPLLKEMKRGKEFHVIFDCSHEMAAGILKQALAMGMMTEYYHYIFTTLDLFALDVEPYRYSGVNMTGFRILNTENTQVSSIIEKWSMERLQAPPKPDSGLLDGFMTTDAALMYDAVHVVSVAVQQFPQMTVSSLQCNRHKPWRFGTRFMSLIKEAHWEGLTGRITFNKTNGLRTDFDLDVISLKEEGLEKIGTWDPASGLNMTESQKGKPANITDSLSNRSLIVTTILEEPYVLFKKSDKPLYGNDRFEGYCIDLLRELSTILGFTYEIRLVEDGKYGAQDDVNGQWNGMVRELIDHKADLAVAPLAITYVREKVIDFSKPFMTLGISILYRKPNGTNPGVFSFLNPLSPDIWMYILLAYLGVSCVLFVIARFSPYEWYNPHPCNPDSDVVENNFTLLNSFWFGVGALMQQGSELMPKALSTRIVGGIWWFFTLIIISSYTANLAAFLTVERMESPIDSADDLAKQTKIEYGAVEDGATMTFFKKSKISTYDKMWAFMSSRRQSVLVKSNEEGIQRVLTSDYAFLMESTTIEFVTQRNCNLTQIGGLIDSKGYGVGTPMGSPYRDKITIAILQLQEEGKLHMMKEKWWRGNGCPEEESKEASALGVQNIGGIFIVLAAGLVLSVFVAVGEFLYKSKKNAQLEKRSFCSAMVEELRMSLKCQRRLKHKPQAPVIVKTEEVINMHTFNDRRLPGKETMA

Take `O=c1[nH]c2cc([N+](=O)[O-])c([N+](=O)[O-])cc2[nH]c1=O` [DNQX]: the Ki in [1] was 2100 ± 300 nM; in series [2], 7100 ± 900 nM; in series [3] (recombinant rat iGluR, mean ± SEM), 360 ± 30 nM; in series [4], 650 ± 30 nM.
With `N[C@@H](Cc1c[nH]c(S)n1)C(=O)O` [(S)-2-mercaptohistidine], the “binding preference at GluK3 over the GluK1, GluK2 and GluK5 subtypes” value in series [3] (at least) is on record as 15–100 fold.
Take `O=C(Nn1c(=O)c(=O)[nH]c2cc(C#Cc3ccc4[nH]ncc4n3)ccc21)c1ccccc1` [Compound 29]: the Ki was 150 ± 50 nM in series [5]; 130 ± 30 nM in series [6]; 230 ± 20 nM in [7]; 3800 ± 100 nM in series [9]; 91 ± 15 nM in series [10]. The IC50 in series [8] is 2200 nM.
On to `O=C(Nn1c(=O)c(=O)[nH]c2cc(C#Cc3cncnc3)ccc21)c1ccccc1` [Compound 27], for which the melting point lay within 318 to 320 °C. In addition, the Ki in [5] stood at 11000 ± 2000 nM. The Ki in series [6] is 280 ± 20 nM. In series [7], the Ki was more than 100000 nM. In [8], the IC50 worked out at 600 nM. In series [9], the Ki is more than 100000 nM. Further, the Ki in series [10] turned out to be 12000 ± 2000 nM.
Turning to `O=C(Nn1c(=O)c(=O)[nH]c2cc(C#Cc3ccccc3)ccc21)c1ccccc1` [Compound 1, N-(2,3-dioxo-6-(phenylethynyl)-3,4-dihydroquinoxalin-1(2H)-yl)benzamide], the Ki in series [1] was approximately 100000 nM; in [2], more than 100000 nM; in series [11] it was 24000 ± 6000 nM; in series [4], more than 100000 nM.

Broadly, the Ki is the dissociation constant of the complex between target and ligand, obtained from inhibition or displacement. What is called IC50 is the concentration that gives 50% inhibition. Broadly, the melting point is the temperature of the solid-liquid transition.
